The numbers were not newly measured in patent publication US6998494B2, “Preparation of trans-fused 3,3a,8,12b-tetrahydro-2h-dibenzo[3,4:6,7]cyclohepta[1,2-b]furan derivatives” (Janssen Pharmaceutica N.V., priority 2001, dated 2006), which cites them from elsewhere.

The conditions of the data set: dose of 300 mg/kg.

Consider `CNCC1CC2c3ccccc3Cc3ccccc3C2O1.O=C(O)C(=O)O` (racemic) [(±)-3,3a,8,12b-tetrahydro-N-methyl-2H-dibenzo[3,4:6,7]-cyclohepta[1,2-b]furan-2-methanamine oxalic acid], for which the “activity as an antidepressant” value is “inactive”.
